Test results taken from patent publication US20250059198A1, “BRM DEGRADING COMPOUNDS AND ASSOCIATED METHODS OF USE” (Arvinas Operations, Inc., priority 2021, published 2025).

Target: T1, BRM (Homo sapiens, UniProt P51531)
T1 construct: Western Blot Screen of BRM Degradation in SW1573 Cells; endogenous in cells; host or cells: SW1573 cells
Assay: BRM degradation (Dmax and DC50) in SW1573 cells, Western blot screen / In-Cell Western screen
Format: cell-based
Conditions: overnight (18-20 hours) treatment; for Dmax: read-out: Dmax (%)** (% degraded)
Procedure, shortened: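 Dmax and DC50 were derived from BRM levels normalised to an alpha-tubulin control, measured by chemiluminescent Western blotting of lysates or by PFA-fixed In-Cell Western on LI-COR Odyssey. SW1573 cells received compound overnight (18–20 h, 0.1% DMSO final).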

T1 sequence (P51531 whole entry): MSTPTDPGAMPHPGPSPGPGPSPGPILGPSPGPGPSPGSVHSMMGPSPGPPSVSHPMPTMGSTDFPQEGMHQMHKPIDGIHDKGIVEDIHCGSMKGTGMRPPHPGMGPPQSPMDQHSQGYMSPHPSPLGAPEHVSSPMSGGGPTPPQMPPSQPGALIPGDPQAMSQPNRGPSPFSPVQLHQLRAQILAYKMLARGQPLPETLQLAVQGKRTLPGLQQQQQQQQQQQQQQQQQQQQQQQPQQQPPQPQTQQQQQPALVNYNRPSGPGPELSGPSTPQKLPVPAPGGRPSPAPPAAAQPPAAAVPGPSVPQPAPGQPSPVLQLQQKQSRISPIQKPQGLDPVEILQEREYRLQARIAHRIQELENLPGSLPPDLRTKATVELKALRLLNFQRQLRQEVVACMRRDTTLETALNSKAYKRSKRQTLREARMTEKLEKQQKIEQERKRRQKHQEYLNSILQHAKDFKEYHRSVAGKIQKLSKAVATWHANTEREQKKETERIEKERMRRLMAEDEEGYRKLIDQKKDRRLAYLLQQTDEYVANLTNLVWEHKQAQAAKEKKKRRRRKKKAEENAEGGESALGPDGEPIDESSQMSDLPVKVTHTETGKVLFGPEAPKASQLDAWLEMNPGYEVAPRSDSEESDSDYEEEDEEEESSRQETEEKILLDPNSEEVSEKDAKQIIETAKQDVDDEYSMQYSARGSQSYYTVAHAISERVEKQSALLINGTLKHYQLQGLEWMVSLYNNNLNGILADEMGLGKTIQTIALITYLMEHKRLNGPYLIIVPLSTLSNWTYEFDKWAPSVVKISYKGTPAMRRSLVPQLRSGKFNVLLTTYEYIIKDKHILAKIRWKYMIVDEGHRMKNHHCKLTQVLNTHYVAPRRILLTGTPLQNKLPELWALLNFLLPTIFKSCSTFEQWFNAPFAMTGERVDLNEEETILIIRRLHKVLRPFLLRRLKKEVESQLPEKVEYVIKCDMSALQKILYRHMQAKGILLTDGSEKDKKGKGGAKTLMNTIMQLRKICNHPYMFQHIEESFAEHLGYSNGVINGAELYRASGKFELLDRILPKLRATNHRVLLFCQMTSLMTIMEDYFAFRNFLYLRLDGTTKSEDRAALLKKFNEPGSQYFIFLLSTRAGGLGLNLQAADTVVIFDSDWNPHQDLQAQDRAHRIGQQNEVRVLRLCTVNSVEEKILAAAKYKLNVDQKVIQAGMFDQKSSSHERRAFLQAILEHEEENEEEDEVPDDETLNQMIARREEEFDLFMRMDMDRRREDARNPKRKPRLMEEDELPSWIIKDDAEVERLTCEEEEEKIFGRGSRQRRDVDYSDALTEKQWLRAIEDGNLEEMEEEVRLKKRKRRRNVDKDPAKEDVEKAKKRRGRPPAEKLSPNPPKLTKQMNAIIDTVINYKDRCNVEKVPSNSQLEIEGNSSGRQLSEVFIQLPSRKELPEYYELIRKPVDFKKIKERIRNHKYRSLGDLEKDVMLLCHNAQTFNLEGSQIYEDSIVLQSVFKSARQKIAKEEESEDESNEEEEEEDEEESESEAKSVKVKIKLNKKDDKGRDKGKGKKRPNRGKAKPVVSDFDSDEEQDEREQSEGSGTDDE

Cc1ncsc1-c1ccc([C@H](C)NC(=O)[C@@H]2C[C@@H](O)CN2C(=O)[C@@H](c2cc(N3CCC(CN4CCC5(CC4)CC(N4CCO[C@@H](C(C)(C)N6C7CCC6CN(c6cc(-c8ccccc8O)nnc6N)C7)C4)C5)CC3)no2)C(C)C)cc1 [Compound 95, (2S,4R)-1-[(2R)-2-{3-[4-({2-[(2R)-2-(2-{3-[3-amino-6-(2-hydroxyphenyl)pyridazin-4-yl]-3,8-diazabicyclo[3.2.1]octan-8-yl}propan-2-yl)morpholin-4-yl]-7-azaspiro[3.5]nonan-7-yl}methyl)piperidin-1-yl]-1,2-oxazol-5-yl}-3-methylbutanoyl]-4-hydroxy-N-[(1S)-1-[4-(4-methyl-1,3-thiazol-5-yl)phenyl]ethyl]pyrrolidine-2-carboxamide]
DC50: 2.5 to 10 nM | Dmax: > 75%

CC(C)[C@@H](C(=O)N1C[C@H](O)C[C@H]1C(=O)N[C@@H](C)c1ccc(C#N)cc1)c1cc(N2CCC(CN3CCC(O[C@H]4C[C@H](N5CCC(C(C)n6cc(C#Cc7cc(-c8ccccc8O)nnc7N)cn6)CC5)C4)CC3)CC2)no1 (stereo partly drawn) [Compound 78, (2S,4R)-N-[(1S)-1-(4-cyanophenyl)ethyl]-4-hydroxy-1-[(2R)-3-methyl-2-{3-[4-({4-[(1r,3r)-3-{4-[1-(4-{2-[3-amino-6-(2-hydroxyphenyl)pyridazin-4-yl]ethynyl}-1H-pyrazol-1-yl)ethyl]piperidin-1-yl}cyclobutoxy]piperidin-1-yl}methyl)piperidin-1-yl]-1,2-oxazol-5-yl}butanoyl]pyrrolidine-2-carboxamide]
DC50: 2.5 to 10 nM | Dmax: > 75%

CC(C)[C@@H](C(=O)N1C[C@H](O)C[C@H]1C(=O)N[C@@H](C)c1ccc(C#N)cc1)c1cc(N2CCC(OCCN3CCC(Oc4cc(N5CCN(c6cc(-c7ccccc7O)nnc6N)CC5)ccn4)CC3)CC2)no1 [Compound 155, (2S,4R)-1-[(2R)-2-{3-[4-(2-{4-[(4-{4-[3-amino-6-(2-hydroxyphenyl)pyridazin-4-yl]piperazin-1-yl}pyridin-2-yl)oxy]piperidin-1-yl}ethoxy)piperidin-1-yl]-1,2-oxazol-5-yl}-3-methylbutanoyl]-N-[(1S)-1-(4-cyanophenyl)ethyl]-4-hydroxypyrrolidine-2-carboxamide]
DC50: 10 to 30 nM | Dmax: > 75%

Cc1ncsc1-c1ccc([C@H](C)NC(=O)[C@@H]2C[C@@H](O)CN2C(=O)[C@@H](c2cc(OCCN3CCN(CCOc4cc(N5C6CCC5CN(c5cc(-c7cc(F)ccc7O)nnc5N)C6)ccn4)[C@H](C)C3)no2)C(C)C)cc1 [Compound 148, (2S,4R)-1-[(2R)-2-(3-{2-[(3R)-4-{2-[(4-{3-[3-amino-6-(5-fluoro-2-hydroxyphenyl)pyridazin-4-yl]-3,8-diazabicyclo[3.2.1]octan-8-yl}pyridin-2-yl)oxy]ethyl}-3-methylpiperazin-1-yl]ethoxy}-1,2-oxazol-5-yl)-3-methylbutanoyl]-4-hydroxy-N-[(1S)-1-[4-(4-methyl-1,3-thiazol-5-yl)phenyl]ethyl]pyrrolidine-2-carboxamide]
DC50: < 2.5 nM | Dmax: > 75%

Cc1ncsc1-c1ccc([C@H](C)NC(=O)[C@@H]2C[C@@H](O)CN2C(=O)[C@@H](c2cc(N3CCC(CN4CCC(N5CCC6(CC5)CC(Oc5cc(N7C8CCC7CN(c7cc(-c9ccccc9O)nnc7N)C8)ccn5)C6)CC4)CC3)no2)C(C)C)cc1 [Compound 43, (2S,4R)-1-[(2R)-2-(3-{4-[(4-{2-[(4-{3-[3-amino-6-(2-hydroxyphenyl)pyridazin-4-yl]-3,8-diazabicyclo[3.2.1]octan-8-yl}pyridin-2-yl)oxy]-7-azaspiro[3.5]nonan-7-yl}piperidin-1-yl)methyl]piperidin-1-yl}-1,2-oxazol-5-yl)-3-methylbutanoyl]-4-hydroxy-N-[(1S)-1-[4-(4-methyl-1,3-thiazol-5-yl)phenyl]ethyl]pyrrolidine-2-carboxamide]
DC50: < 2.5 nM | Dmax: > 75%

Cc1ncsc1-c1ccc([C@H](C)NC(=O)[C@@H]2C[C@@H](O)CN2C(=O)[C@@H](c2cc(N3CCC(CN4CCC5(CCC5N5CCO[C@H](CN6C7CCC6CN(c6cc(-c8ccccc8O)nnc6N)C7)C5)CC4)CC3)no2)C(C)C)cc1 (stereo partly drawn) [Compound 143, (2S,4R)-1-[(2R)-2-{3-[4-({1-[(2S)-2-({3-[3-amino-6-(2-hydroxyphenyl)pyridazin-4-yl]-3,8-diazabicyclo[3.2.1]octan-8-yl}methyl)morpholin-4-yl]-7-azaspiro[3.5]nonan-7-yl}methyl)piperidin-1-yl]-1,2-oxazol-5-yl}-3-methylbutanoyl]-4-hydroxy-N-[(1S)-1-[4-(4-methyl-1,3-thiazol-5-yl)phenyl]ethyl]pyrrolidine-2-carboxamide]
DC50: < 2.5 nM | Dmax: > 75%
